Experimental data taken from US10039760B2, “Method of using diketopiperazines and composition containing them” (Ampio Pharmaceuticals, Inc., priority 2000, dated 2018).

System: NHBE 6122 normal human bronchial epithelial cells
Experiment: PAF-induced release of IL-8 by NHBE 6122 cells (IL-8 ELISA of cell supernatants)
Format: cell-based
Description: NHBE 6122 normal human bronchial epithelial cells (Clonetics, San Diego, Calif.) were added to a 24-well tissue culture plate (Falcon, now BD Biosciences, Franklin Lakes, […]) in BEGM (bronchial epithelial growth medium; Clonetics) containing epinephrine (complete medium) at 37° C. and 5% CO2. After adhering, the cells were washed twice with BEGM medium without epinephrine. They were then incubated in complete medium or in complete medium containing 20 μM 3-methyl-2,5-diketopiperazine-6-acetic acid (DA-DKP; preparation described in Example 1, 5; stock solution made in HEPES buffered saline (HBSS; Clonetics) at 4 mM for 20 minutes at 37° C. and 5% CO2. Platelet activating factor (PAF; Sigma, St. Louis, Mo.) dissolved in dimethylsulfoxide (DMSO; tissue culture grade; Sigma, St. Louis, Mo.) was then added to a final concentration of 100 nM or 500 nM, and the cells were incubated for an additional 6 hours at 37° C. and 5% CO2. Medium containing DMSO and HBSS was used as a control.
The concentration of IL-8 in cell supernatants was determined by an ELISA using human IL-8 matched pair antibodies (Endogen, Cambridge, Mass.). The ELISA was performed using an ELISA kit from Endogen, Cambridge, Mass. according to the manufacturer's instructions with the following exceptions: (1) coating antibody at 1 μg/ml; (2) detecting antibody 30 ng/ml; StrepAvidin HRP diluted 1:32,000.

Compound | IL-8 (Table 1, PAF 100 nM alone, 20,000 cells/well, 6 hours) [pg/mL] | IL-8 (Table 2, PAF 500 nM alone, 20,000 cells/well, 6 hours) [pg/mL] | IL-8 (Table 3, PAF 100 nM alone, cells split to 5,000 cells/well four days prior, grown to 70% confluence) [pg/mL] | IL-8 (Table 1, 20 min pre-incubation with DA-DKP 20 μM, then PAF 100 nM for 6 hours, 20,000 cells/well) [pg/mL] | IL-8 (Table 1, DA-DKP 20 μM alone, no PAF, 20,000 cells/well, 6 hours) [pg/mL] | IL-8 (Table 2, 20 min pre-incubation with DA-DKP 20 μM, then PAF 500 nM for 6 hours, 20,000 cells/well) [pg/mL] | IL-8 (Table 2, DA-DKP 20 μM alone, no PAF, 20,000 cells/well, 6 hours) [pg/mL] | IL-8 (Table 3, DA-DKP 20 μM alone, no PAF, cells split to 5,000 cells/well four days prior, grown to 70% confluence) [pg/mL] | IL-8 (Table 3, pre-incubation with DA-DKP 20 μM, then PAF 100 nM, cells split to 5,000 cells/well four days prior, grown to 70% confluence) [pg/mL] | IL-8 secretion induced by PAF (result in words, pre-incubation of the cells with the diketopiperazine)
1-O-alkyl-2-acetyl-sn-glycerol-3-phosphorylcholine [PAF, reference compound] | 1094.68 | 887.87 | 355.36 |  |  |  |  |  |  | 
CC1NC(=O)C(CC(=O)O)NC1=O (stereo not shown) [DA-DKP, 3-methyl-2,5-diketopiperazine-6-acetic acid] |  |  |  | 714.91 | 803.11 | 542.5 | 837.84 | 184.86 | 201.93 | inhibited
